Measurements published in patent US6805878B2, “Transdermal administration of ACE inhibitors” (Noven Pharmaceuticals, Inc., priority 2001, dated 2004).
Where a name gives a salt, the structure may show the parent alone.

Tests used:
[1] = Human cadaver skin permeation (flux) study, modified Franz diffusion cells; assay type: in vitro ADME; details: for flux of a dermal composition: carrier composition of Example 2, different cadaver skin, FIG. 1; for flux through skin (in words): enalapril ethyl ester prodrug compared with enalapril maleate form
Description: (§1) Human cadaver skin permeation studies were performed to quantitatively determine the effective permeation of enalapril ethyl ester through the stratum corneum. The stratum corneum was obtained from split thickness, cryo-preserved cadaver skin by the heat separation technique (˜55°). Samples of 5/16″ diameter were cut from the laminate, in triplicate, and mounted onto ½″ cut pieces of the stratum corneum. These samples were then placed on modified Franz diffusion cells. The receptor was filled with 7.5 mL of 0.9% NaCl and 0.01% NaN3 in deionized water. The cells were maintained at a constant 32° C. and were magnetically stirred at approximately 300 rpm. At specified time points, samples of the receptor phase were taken with complete replacement of the receptor phase. These samples were quantified by high-performance liquid chromatography (HPLC) utilizing Waters HPLC instrumentation. C-8(15 cm×4.6 mm) 5 μm particle size columns ([…] made by MetaChem Technologies, Inc.; Torrance, Calif.) were used at 50° C. (column temperature). The mobile phase contained 50% acetonitrile: 50% buffer (10 mM KH2PO4, pH=2.7). The detection wavelength was 214 nm. HPLC flow rate is 1.5 mL/min.

[2] = system: esterase enzyme in the skin; test: Hydrolysis of penetrated prodrug in the skin after permeation; assay type: in vitro ADME, Human
Description: as §1
More than 50% of the penetrated enalapril ethyl ester was hydrolyzed into enalaprilat after permeation through the skin.

Compound | flux of a dermal composition [1] | flux through skin (in words) [1] | penetrated enalapril ethyl ester hydrolyzed into enalaprilat ([2]; after permeation through the skin) | hydrolysis of the ethyl ester group on the proline moiety ([2]; by an esterase enzyme in the skin)
CCOC(=O)[C@H](CCc1ccccc1)N[C@@H](C)C(=O)N1CCC[C@H]1C(=O)OCC [enalapril ethyl ester] | 4.8 µg/cm²/h | significantly greater | More than 50% | selectively hydrolyzed
CCOC(=O)[C@H](CCc1ccccc1)N[C@@H](C)C(=O)N1CCC[C@H]1C(=O)O [enalapril maleate, reference compound] | 0.2 μg/cm^2/sec | negligible |  | 
